Experimental findings from patent US7858621B2 (Amorepacific Corporation, priority 2006, dated 2010) are described below.

Each structure is given as a SMILES string. Where a name gives a salt, the structure may show the parent alone.

The target of the assay is T1, vanilloid receptor (Rattus norvegicus, UniProt O35433).
T1 construct: DRG nerve cells from the primary culture of 2 days were equilibrated; endogenous in cells; host or cells: primary culture of dorsal root ganglion neurons from neonatal SD rats
T1 sequence (O35433 whole entry): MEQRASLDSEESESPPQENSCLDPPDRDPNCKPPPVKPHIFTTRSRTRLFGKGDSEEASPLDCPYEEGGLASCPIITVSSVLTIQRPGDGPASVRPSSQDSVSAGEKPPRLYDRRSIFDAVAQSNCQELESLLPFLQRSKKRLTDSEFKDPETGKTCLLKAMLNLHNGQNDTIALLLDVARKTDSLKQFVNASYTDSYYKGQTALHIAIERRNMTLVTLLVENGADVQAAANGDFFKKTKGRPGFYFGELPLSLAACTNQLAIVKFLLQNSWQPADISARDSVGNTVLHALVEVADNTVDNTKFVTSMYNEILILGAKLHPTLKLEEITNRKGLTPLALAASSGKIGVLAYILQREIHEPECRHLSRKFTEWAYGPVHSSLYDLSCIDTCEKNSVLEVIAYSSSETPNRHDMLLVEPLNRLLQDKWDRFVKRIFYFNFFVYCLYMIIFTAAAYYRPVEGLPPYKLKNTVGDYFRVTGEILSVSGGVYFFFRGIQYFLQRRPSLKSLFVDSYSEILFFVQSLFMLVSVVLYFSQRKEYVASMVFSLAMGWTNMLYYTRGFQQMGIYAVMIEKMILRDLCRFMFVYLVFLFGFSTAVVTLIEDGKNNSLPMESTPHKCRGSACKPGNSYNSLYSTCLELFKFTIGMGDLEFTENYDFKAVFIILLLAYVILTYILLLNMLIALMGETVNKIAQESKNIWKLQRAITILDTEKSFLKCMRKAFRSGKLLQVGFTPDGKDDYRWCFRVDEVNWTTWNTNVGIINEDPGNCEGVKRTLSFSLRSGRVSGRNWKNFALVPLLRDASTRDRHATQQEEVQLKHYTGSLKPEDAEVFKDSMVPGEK
Put plainly: 45Ca influx test in cultured neonatal rat DRG neurons, inhibition of capsaicin response. In kind it is cell-based. The conditions noted are these: neonatal rat DRG neurons, capsaicin 0.5 μM, 45Ca influx; read-out: Antagonist Calcium Uptake Test (IC50). Put shortly: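 Neonatal SD rat DRG neurons, cultured 2 days with NGF (200 ng/ml) and Ara-C, were washed in HEPES (10 mM, pH 7.4)-buffered Ca/Mg-free HBSS. Test compound was added with capsaicin (final 0.5 μM) and 45Ca (10 μCi/ml) for 10 min at room temperature; 45Ca uptake counted by scintillation after SDS elution.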
As a reminder, the IC50 is the point on the concentration scale where inhibition reaches its midpoint. As for `C#Cc1cc(CNC(=O)/C=C/c2ccc(C(F)(F)F)nc2-c2ccccc2)cc(F)c1NS(C)(=O)=O` [Example 107, N-(3-Ethynyl-5-fluoro-4-methanesulfonylamino-benzyl)-3-(2-phenyl-6-trifluoromethyl-pyridin-3-yl)-acrylamide], the IC50 amounted to 510 nM.

Regarding `CC(C)Oc1nc(C(F)(F)F)ccc1/C=C/C(=O)NCc1ccc(NS(C)(=O)=O)c(F)c1` [Example 108, N-(3-Fluoro-4-methanesulfonylamino-benzyl)-3-(2-isopropoxy-6-trifluoromethyl-pyridin-3-yl)-acrylamide], the IC50 came out at 740 nM.

`CC(C)Oc1nc(C(F)(F)F)ccc1/C=C/C(=O)NCc1cc(F)c(NS(C)(=O)=O)c(C#N)c1` [Example 109, N-(3-Cyano-5-fluoro-4-methanesulfonylamino-benzyl)-3-(2-isopropoxy-6-trifluoromethyl-pyridin-3-yl)-acrylamide]: the IC50 was 150 nM. For `C#Cc1cc(CNC(=O)/C=C/c2ccc(C(F)(F)F)nc2N2CCC(C(=O)OCC)CC2)cc(F)c1NS(C)(=O)=O` [Example 110, AT-(3-Ethynyl-5-fluoro-4-methansulfonylamino-benzyl)-3-[2-(4-ethoxycarbonyl-piperid-1-yl)-6-trifluoromethyl-pyridin-3-yl]-acrylamide] the value was 580 nM; for `CCOC(=O)C1CCN(c2nc(C(F)(F)F)ccc2/C=C/C(=O)NCc2cc(F)c(NS(C)(=O)=O)c(C#N)c2)CC1` [Example 111, N-(3-Cyano-5-fluoro-4-methansulfonylamino-benzyl)-3-[2-(4-ethoxycarbonyl-piperid-1-yl)-6-trifluoromethyl-pyridin-3-yl]-acrylamide], 820 nM. For `CS(=O)(=O)Nc1ccc(CNC(=O)/C=C/c2ccc(C(F)(F)F)nc2OCc2ccccc2)cc1F` [Example 112, 3-(2-Benzyloxy-6-trifluoromethyl-pyridin-3-yl)-N-(3-fluoro-4-methanesulfonylamino-benzyl)-acrylamide] the value was 1400 nM. For `C#Cc1cc(CNC(=O)/C=C/c2ccc(C(F)(F)F)nc2Nc2ccccc2)cc(F)c1NS(C)(=O)=O` [Example 113, N-(3-Ethynyl-5-fluoro-4-methanesulfonylamino-benzyl)-3-(2-phenylamino-6-trifluoromethyl-pyridin-3-yl)-acrylamide] the value was 270 nM; for `C#Cc1cc(CNC(=O)/C=C/c2ccc(C(F)(F)F)nc2N2CCCC(C(=O)OCC)C2)cc(F)c1NS(C)(=O)=O` (stereo not drawn) [Example 114, N-(3-Ethynyl-5-fluoro-4-methansulfonylamino-benzyl)-3-[2-(3-ethoxycarbonyl-piperid-1-yl)-6-trifluoromethyl-pyridin-3-yl]-acrylamide], 430 nM.

Turning to `CCOC(=O)C1CCCN(c2nc(C(F)(F)F)ccc2/C=C/C(=O)NCc2cc(F)c(NS(C)(=O)=O)c(C#N)c2)C1` (stereo not drawn) [Example 115, N-(3-Cyano-5-fluoro-4-methansulfonylamino-benzyl)-3-[2-(3-ethoxycarbonyl-piperid-1-yl)-6-trifluoromethyl-pyridin-3-yl]-acrylamide], the IC50 came out at 470 nM.

As to `C#Cc1cc(CNC(=O)/C=C/c2ccc(C(F)(F)F)nc2N2CCNCC2)cc(F)c1NS(C)(=O)=O` [Example 116, N-(3-Ethynyl-5-fluoro-4-methanesulfonylamino-benzyl)-3-(2-piperaz-1-yl-6-trifluoromethyl-pyridin-3-yl)-acrylamide, HCl salt], the IC50 worked out at 4500 nM. For `C#Cc1cc(CNC(=O)/C=C/c2ccc(C(F)(F)F)nc2NC(C)CC)cc(F)c1NS(C)(=O)=O` (stereo not drawn) [Example 117, 3-(2-sec-Butylamino-6-trifluoromethyl-pyridin-3-yl)-N-(3-ethynyl-5-fluoro-4-methanesulfonylamino-benzyl)-acrylamide] the value was 77 nM; for `CC(C)CCOc1nc(C(F)(F)F)ccc1/C=C/C(=O)NCc1cc(F)c(NS(C)(=O)=O)c(C#N)c1` [Example 118, N-(3-Cyano-5-fluoro-4-methanesulfonylamino-benzyl)-3-[2-(3-methyl-butoxy)-6-trifluoromethyl-pyridin-3-yl]-acrylamide], 200 nM; for `C#Cc1cc(CNC(=O)/C=C/c2ccc(C(F)(F)F)nc2-c2ccsc2)cc(F)c1NS(C)(=O)=O` [Example 119, N-(3-Ethynyl-5-fluoro-4-methanesulfonylamino-benzyl)-3-(2-thien-3-yl-6-trifluoromethyl-pyridin-3-yl)-acrylamide], 270 nM.

As for `C#Cc1cc(CNC(=O)/C=C/c2ccc(C(F)(F)F)nc2-c2cccc(F)c2)cc(F)c1NS(C)(=O)=O` [Example 120, N-(3-Ethynyl-5-fluoro-4-methanesulfonylamino-benzyl)-3-[2-(3-fluoro-phenyl)-6-trifluoromethyl-pyridin-3-yl]-acrylamide], the IC50 was found to be 310 nM. `CC(C)Nc1nc(C(F)(F)F)ccc1/C=C/C(=O)NCc1ccc(NS(C)(=O)=O)c(F)c1` [Example 121, N-(3-Fluoro-4-methanesulfonylamino-benzyl)-3-(2-isopropylamino-6-trifluoromethyl-pyridin-3-yl)-acrylamide]: the IC50 was 120 nM. For `CC(C)Nc1nc(C(F)(F)F)ccc1/C=C/C(=O)NCc1cc(F)c(NS(C)(=O)=O)c(C#N)c1` [Example 122, N-(3-Cyano-5-fluoro-4-methanesulfonylamino-benzyl)-3-(2-isopropylamino-6-trifluoromethyl-pyridin-3-yl)-acrylamide] the value was 76 nM; for `CCC(C)Nc1nc(C(F)(F)F)ccc1/C=C/C(=O)NCc1ccc(NS(C)(=O)=O)c(F)c1` (stereo not drawn) [Example 123, 3-(2-sec-Butylamino-6-trifluoromethyl-pyridin-3-yl)-N-(3-fluoro-4-methanesulfonylamino-benzyl)-acrylamide], 93 nM; for `CCC(C)Nc1nc(C(F)(F)F)ccc1/C=C/C(=O)NCc1cc(F)c(NS(C)(=O)=O)c(C#N)c1` (stereo not drawn) [Example 124, 3-(2-sec-Butylamino-6-trifluoromethyl-pyridin-3-yl)-N-(3-cyano-5-fluoro-4-methanesulfonylamino-benzyl)-acrylamide], 88 nM. Regarding `C#Cc1cc(CNC(=O)/C=C/c2ccc(C(F)(F)F)nc2-c2cccc(OC)c2)cc(F)c1NS(C)(=O)=O` [Example 125, N-(3-Ethynyl-5-fluoro-4-methanesulfonylamino-benzyl)-3-[2-(3-methoxy-phenyl)-6-trifluoromethyl-pyridin-3-yl]-acrylamide], the IC50 is more than 1000 nM. For `C#Cc1cc(CNC(=O)/C=C/c2ccc(C(F)(F)F)nc2-c2cccnc2)cc(F)c1NS(C)(=O)=O` [Example 126, N-(3-Ethynyl-5-fluoro-4-methanesulfonylamino-benzyl)-3-(2-pyridin-3-yl-6-trifluoromethyl-pyridin-3-yl)-acrylamide] the value was 4900 nM; for `CS(=O)(=O)Nc1ccc(CNC(=O)/C=C/c2ccc(C(F)(F)F)nc2Nc2ccccc2)cc1F` [Example 127, N-(3-Fluoro-4-methanesulfonylamino-benzyl)-3-(2-phenylamino-6-trifluoromethyl-pyridin-3-yl)-acrylamide], 320 nM; for `CS(=O)(=O)Nc1c(F)cc(CNC(=O)/C=C/c2ccc(C(F)(F)F)nc2Nc2ccccc2)cc1C#N` [Example 128, N-(3-Cyano-5-fluoro-4-methanesulfonylamino-benzyl)-3-(2-phenylamino-6-trifluoromethyl-pyridin-3-yl)-acrylamide], 600 nM. For the compound `CCC(C)Nc1nc(C(F)(F)F)ccc1/C=C/C(=O)NCc1cc(F)c(NS(C)(=O)=O)c(F)c1` (stereo not drawn) [Example 129, 3-(2-sec-Butylamino-6-trifluoromethyl-pyridin-3-yl)-N-(3,5-difluoro-4-methanesulfonylamino-benzyl)-acrylamide], the IC50 was found to be 47 nM. For `CCC(C)Nc1nc(C(F)(F)F)ccc1/C=C/C(=O)NCc1cc(C)c(NS(C)(=O)=O)c(F)c1` (stereo not drawn) [Example 130, 3-(2-sec-Butylamino-6-trifluoromethyl-pyridin-3-yl)-N-(3-fluoro-4-methanesulfonylamino-5-methyl-benzyl)-acrylamide] the value was 54 nM.

For `CS(=O)(=O)Nc1ccc(CNC(=O)/C=C/c2ccc(C(F)(F)F)nc2Oc2ccccc2)cc1F` [Example 132, N-(3-Fluoro-4-methanesulfonylamino-benzyl)-3-(2-phenoxy-6-trifluoromethyl-pyridin-3-yl)-acrylamide], the IC50 was more than 3000 nM. With `C=Cc1cc(CNC(=O)/C=C/c2ccc(C(F)(F)F)nc2Oc2ccccc2)cc(F)c1NS(C)(=O)=O` [Example 133, N-(3-Fluoro-4-methanesulfonylamino-5-vinyl-benzyl)-3-(2-phenoxy-6-trifluoromethyl-pyridin-3-yl)-acrylamide], the IC50 came to 280 nM. For `C#Cc1cc(CNC(=O)/C=C/c2ccc(C(F)(F)F)nc2Oc2cccnc2)cc(F)c1NS(C)(=O)=O` [Example 134, N-(3-Ethynyl-5-fluoro-4-methanesulfonylamino-benzyl)-3-[2-(pyridin-3-yloxy)-6-trifluoromethyl-pyridin-3-yl]-acrylamide] the value was 2600 nM. For `C#Cc1cc(CNC(=O)/C=C/c2ccc(C(F)(F)F)nc2-c2ccc(F)nc2)cc(F)c1NS(C)(=O)=O` [Example 135] the value was 2300 nM; for `CS(=O)(=O)Nc1c(F)cc(CNC(=O)/C=C/c2ccc(C(F)(F)F)nc2-c2cccc(F)c2)cc1C#N` [Example 136, N-(3-Cyano-5-fluoro-4-methanesulfonylamino-benzyl)-3-[2-(3-fluoro-phenyl)-6-trifluoromethyl-pyridin-3-yl]-acrylamide], 900 nM. For `C#Cc1cc(CNC(=O)/C=C/c2ccc(C(F)(F)F)nc2Sc2ccccc2)cc(F)c1NS(C)(=O)=O` [Example 139, N-(3-Ethynyl-5-fluoro-4-methanesulfonylamino-benzyl)-3-(2-phenylthio-6-trifluoromethyl-pyridin-3-yl)-acrylamide] the value was 340 nM.
